Tested on: mice NK cell
Experiment: Mice NK cell activity in vivo (i.p. dosing 20 days, spleen effector cells vs YAC-1 target cells, MTT)
Design: species or system BALB/c mice
Settings: for NK cell activity (%): Table 8, saline 76.0 ± 4.3
Experimental: Animals were randomized into two peptide groups (200 μg/kg/day and 50 μg/kg/day), Cyclosporine A group (10 mg/kg/day), and saline group (0.5 ml/day). Each group contained 10 mice, in which half were female and half were male. All test substances were dissolved in 0.5 ml saline and administered intraperitoneally once per day for 20 days. T-lymphocyte transformation and NK cell activity were examined on the day immediately following the last injection. YAC-1 target cells were brought to log phase and adjusted to a density of 1×10^5/ml. Mice spleen cells prepared in section 2.2.2 above were adjusted to a density of 4×10^6/ml and used as effector cells. The cell suspensions were inoculated onto 96 wells cell culture plates as follows: Effector cell wells: 100 μl spleen cell suspension+100 μl RPMI-1640 Assay wells: 100 μl spleen cell suspension+100 μl YAC-1 cell suspension Target cell wells: 100 μl YAC-1 cell suspension+100 μl RPMI-1640 Three assay wells and three effector cell wells were set up for each animal, and 12 target cell wells were set up per cell culture plate. The plates were incubated at 37° C., 5% CO2 for 4 hours, then MTT was added and the plates were read at OD 570 nm referenced at 630 nm with ELISA reader. NK cell activity (%)=1−[(assay wells OD−effector cell wells OD)/target cell wells OD]×100%

PLNPK [CMS-010.26]
NK cell activity (%) (50 μg/kg/day i.p. 20 days): 68.5 ± 7.2 % | NK cell activity (%) (200 μg/kg/day i.p. 20 days): 67.7 ± 5.3 % | Effect on mice NK cell activity in vivo (suppression) (at suitable dosage, vs saline control P<0.05): suppress

Reference: patent US7718764B2, “Biologically active peptide [sequence] derivatives” (CMS Peptides Patent Holding Company Limited, priority 2004, dated 2010)
